Assay results reported in patent publication US8410174B2, “Method for treating arthritis” (AnaMar AB, priority 2000, dated 2013).

Key:
MC1-receptor = MC1-receptor (Mus musculus, UniProt Q01727); assay: Affinity for the MC1-receptor, binding assay with I125-NDP-αMSH as ligand; conditions: read-out: Affinity for MC-receptors Ki MC1
Procedure: Test 1. Affinity for the MC1-receptor
The binding assay was carried out essentially as described by Lunec et al, Melanoma Res 1992; 2; 5-12, using I^125-NDP-αMSH as ligand.

MC3 [1] = target: T1, MC3 (Homo sapiens, UniProt P41968); assay: Affinity for the MC3-receptors, binding assay with I125-NDP-αMSH as ligand; conditions: read-out: Affinity for MC-receptors Ki MC3
Procedure: (§1) Test 2. Affinity for the MC3-Receptors, the MC4-Receptors and the MC5-Receptors
(§2) The binding assays were carried out essentially as described by Szardenings et al, J Biol Chem 1997; 272; 27943-27948 and Schiöth et al, FEES Lett 1997; 410; 223-228 using I^125-NDP-αMSH as ligand.

MC4 [2] = target: T2, MC4 (Homo sapiens, UniProt P32245); assay: Affinity for the MC4-receptors, binding assay with I125-NDP-αMSH as ligand; conditions: read-out: Affinity for MC-receptors Ki MC4
Procedure: as §1, §2

MC5 [3] = target: T3, MC5 (Homo sapiens, UniProt P33032); assay: Affinity for the MC5-receptors, binding assay with I125-NDP-αMSH as ligand; conditions: read-out: Affinity for MC-receptors Ki MC5
Procedure: as §1, §2

MC1 = MC1 (Homo sapiens, UniProt Q01726); assay: Stimulation of cAMP, MC1; format: cell-based
Procedure: (§3) The stimulation of cAMP was carried out essentially as described by Schiöth et al, Br J Pharmacol 1998; 124; 75-82.

MC3 [4] = target: T1, MC3; assay: Stimulation of cAMP, MC3; format: cell-based
Procedure: as §3

MC4 [5] = target: T2, MC4; assay: Stimulation of cAMP, MC4; format: cell-based
Procedure: as §3

MC5 [6] = target: T3, MC5; assay: Stimulation of cAMP, MC5; format: cell-based
Procedure: as §3

melanocortin receptors = assay: Affinity to the melanocortin receptors; format: binding

T1 sequence (P41968 whole entry): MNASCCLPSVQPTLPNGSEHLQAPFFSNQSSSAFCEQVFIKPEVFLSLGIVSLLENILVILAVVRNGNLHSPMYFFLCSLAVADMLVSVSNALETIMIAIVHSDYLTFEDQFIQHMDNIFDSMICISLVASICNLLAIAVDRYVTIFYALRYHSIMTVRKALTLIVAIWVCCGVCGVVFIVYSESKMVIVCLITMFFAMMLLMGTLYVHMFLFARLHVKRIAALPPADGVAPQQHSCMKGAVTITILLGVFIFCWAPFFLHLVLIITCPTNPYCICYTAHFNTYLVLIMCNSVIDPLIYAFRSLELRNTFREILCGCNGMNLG
T2 sequence (P32245 whole entry): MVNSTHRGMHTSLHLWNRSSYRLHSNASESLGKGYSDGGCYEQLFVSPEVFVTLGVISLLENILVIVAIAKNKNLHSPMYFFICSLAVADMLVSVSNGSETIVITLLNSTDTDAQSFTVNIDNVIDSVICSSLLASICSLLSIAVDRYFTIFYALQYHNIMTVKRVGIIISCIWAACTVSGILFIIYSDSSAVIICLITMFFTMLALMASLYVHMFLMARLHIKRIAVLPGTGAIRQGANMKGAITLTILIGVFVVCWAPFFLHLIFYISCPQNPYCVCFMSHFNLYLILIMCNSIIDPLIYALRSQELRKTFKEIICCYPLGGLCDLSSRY
T3 sequence (P33032 whole entry): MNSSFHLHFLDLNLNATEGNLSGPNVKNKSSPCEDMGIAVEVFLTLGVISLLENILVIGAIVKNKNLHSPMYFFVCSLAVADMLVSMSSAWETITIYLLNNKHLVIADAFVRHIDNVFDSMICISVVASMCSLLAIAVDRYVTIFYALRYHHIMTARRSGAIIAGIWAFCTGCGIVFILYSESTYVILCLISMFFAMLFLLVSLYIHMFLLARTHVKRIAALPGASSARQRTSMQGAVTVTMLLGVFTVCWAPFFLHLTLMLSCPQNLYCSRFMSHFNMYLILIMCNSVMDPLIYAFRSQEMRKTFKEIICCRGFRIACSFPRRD
MC1-receptor, sequence (Q01727 whole entry): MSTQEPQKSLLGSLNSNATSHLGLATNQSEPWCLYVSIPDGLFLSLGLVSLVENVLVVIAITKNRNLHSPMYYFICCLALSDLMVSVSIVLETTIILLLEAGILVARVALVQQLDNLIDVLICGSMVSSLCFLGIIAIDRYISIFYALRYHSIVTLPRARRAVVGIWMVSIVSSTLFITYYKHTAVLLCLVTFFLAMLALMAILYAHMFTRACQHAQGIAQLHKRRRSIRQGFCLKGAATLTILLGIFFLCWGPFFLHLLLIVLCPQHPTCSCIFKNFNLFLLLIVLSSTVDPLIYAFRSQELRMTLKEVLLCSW
MC1, sequence (Q01726 whole entry): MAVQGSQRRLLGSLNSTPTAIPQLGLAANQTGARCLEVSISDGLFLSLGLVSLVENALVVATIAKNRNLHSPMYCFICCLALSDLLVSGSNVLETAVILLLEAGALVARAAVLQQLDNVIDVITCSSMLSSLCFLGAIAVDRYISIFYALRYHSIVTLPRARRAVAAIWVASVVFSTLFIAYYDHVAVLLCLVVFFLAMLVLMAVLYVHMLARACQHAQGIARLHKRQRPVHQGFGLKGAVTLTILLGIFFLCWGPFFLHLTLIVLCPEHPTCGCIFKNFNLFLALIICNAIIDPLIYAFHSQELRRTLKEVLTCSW

Row | SMILES | melting point | also measured
1 | CC(=O)O.COc1ccc(C=NNC(=N)N)c(Cl)c1OC | 198 to 200 °C | –
2 | CC(=O)O.N=C(N)NN=Cc1ccc(Br)cc1F | 187 to 188 °C | –
3 | CC(=O)O.N=C(N)NN=Cc1c(F)cccc1F | 138.5 to 141 °C | –
4 | COc1cc([N+](=O)[O-])cc(C=NNC(=N)N)c1OC.Cl | 237 to 238 °C | –
5 | CC(=O)O.COc1ccc(C=NNC(=N)N)c(O)c1 | 161 to 164 °C | –
6 | Cl.N=C(N)NN=Cc1c(Cl)ccc([N+](=O)[O-])c1[N+](=O)[O-] | 153 to 154.5 °C | –
7 | COc1ccc(C=NNC(=N)N)cc1Br.Cl | 261 to 262.5 °C | –
8 | Cl.N=C(N)NN=Cc1cccc(I)c1 | 203 to 204 °C | –
9 | Cl.N=C(N)NN=Cc1ccccc1S(=O)(=O)O | > 260 °C | –
10 | COc1cc([N+](=O)[O-])cc(C=NNC(=N)NO)c1OC.Cl | 196 to 197.5 °C | –
11 | CC(=O)O.COc1c(Cl)cc(C=NNC(=N)N)cc1Cl | 185 to 190 °C | –
12 | CC(=O)O.COc1c(C)cc(C=NNC(=N)N)cc1Br | 163 to 166 °C | –
13 | COc1ccc(C=NNC(=N)N)c(OC)c1OC.Cl | 181 to 183 °C | –
14 | Cc1cc(O)c(C=NNC(=N)N)cc1[N+](=O)[O-].Cl | 229 to 230 °C | –
15 | Cc1cc([N+](=O)[O-])c(C=NNC(=N)N)cc1Br.Cl | 246.5 to 248 °C | –
16 | Cl.N=C(N)NN=Cc1cc(Br)cc([N+](=O)[O-])c1O | > 250 °C | –
17 | COc1c(C=NNC(=N)N)cc(Br)cc1[N+](=O)[O-].Cl | 258 to 259 °C | –
18 | CC(=O)O.COc1cc(C=NNC(=N)N)cc(OC)c1OC | 223 to 225 °C | –
19 | CC(=O)O.COc1cc(OC)c(C=NNC(=N)N)c(OC)c1 | 66 to 68 °C | –
20 | CC(=O)O.COc1cc(O)c(C=NNC(=N)N)c(OC)c1 | 115 to 118 °C | –
21 | CC(=O)O.N=C(N)NN=Cc1cccc(F)c1F | 149 to 151.5 °C | –
22 | Cl.N=C(N)NN=Cc1c([N+](=O)[O-])ccc(Br)c1[N+](=O)[O-] | 166.5 to 168 °C | –
23 | COc1ccc(C=NNC(=N)NO)cc1Br.Cc1ccc(S(=O)(=O)O)cc1 [1:3, N-(3-Bromo-4-methoxybenzylideneamino)-N′-hydroxyguanidine tosylate] | – | Ki (MC1-receptor): 42 µM; Ki (MC3 [1]): 91 µM; Ki (MC4 [2]): 62 µM; Ki (MC5 [3]): 47 µM; Influence on cAMP MC1c (MC1): 8.4; Influence on cAMP MC3c (MC3 [4]): 16; Influence on cAMP MC4c (MC4 [5]): 31.8; Influence on cAMP MC5c (MC5 [6]): 4.7
24 | Cc1ccc(S(=O)(=O)O)cc1.N=C(NO)NN=Cc1cc(Cl)ccc1[N+](=O)[O-] [1:4, N-(5-Chloro-2-nitrobenzylideneamino)-N′-hydroxyguanidine tosylate] | – | Ki (MC1-receptor): 42 µM; Ki (MC3 [1]): 68 µM; Ki (MC4 [2]): 61 µM; Ki (MC5 [3]): 33 µM; Influence on cAMP MC1c (MC1): 6.4; Influence on cAMP MC3c (MC3 [4]): 1; Influence on cAMP MC4c (MC4 [5]): 17.1; Influence on cAMP MC5c (MC5 [6]): 8.7
25 | COc1ccc(C=NNC(=N)NO)cc1[N+](=O)[O-] [1:76, N-(4-Methoxy-3-nitrobenzylideneamino)-N′-hydroxyguanidine] | 219 to 221 °C | –
26 | N=C(NO)NN=Cc1ccccc1S(=O)(=O)O [1:134, N-(2-Sulphobenzylideneamino)-N′-hydroxyguanidine] | 243.5 to 244 °C | –
27 | N=C(N)N/N=C/c1c(Cl)cccc1Cl [Guanabenz] | – | affinity to the melanocortin receptors (melanocortin receptors): no affinity

Second part, led by results:

Row | melting point | SMILES | also measured
28 | 191 to 194 °C | CC(=O)O.COc1cc([N+](=O)[O-])cc(C=NNC(=N)N)c1OC | –
29 | 176 to 178 °C | CC(=O)O.N=C(N)NN=Cc1ccc(F)c(F)c1 | –
30 | 192 to 195 °C | CC(=O)O.N=C(N)NN=Cc1cc([N+](=O)[O-])ccc1F | –
31 | 152 to 153 °C | CC(=O)O.N=C(N)NN=Cc1ccc(Br)c([N+](=O)[O-])c1 | –
32 | 222 to 224 °C (dec.) | CC(=O)O.N=C(N)NN=Cc1cc([N+](=O)[O-])ccc1Cl | –
33 | 222 to 224 °C (dec.) | CC(=O)O.N=C(N)NN=Cc1ccc(F)c([N+](=O)[O-])c1 | –
34 | 144 to 147 °C | CC(=O)O.COc1ccc(C=NNC(=N)N)cc1[N+](=O)[O-] | –
35 | 231 to 233 °C | CC(=O)O.N=C(N)NN=Cc1cc(F)cc(F)c1[N+](=O)[O-] | –
36 | 88 to 91 °C | CC(=O)O.N=C(N)NN=Cc1cc(Cl)cc(Cl)c1[N+](=O)[O-] | –
37 | 243 to 246 °C | COc1cc([N+](=O)[O-])cc(C=NNC(=N)N)c1O.Cl | –
38 | 255 to 258 °C (dec.) | CC(=O)O.COc1c(Cl)cc(C=NNC(=N)N)cc1[N+](=O)[O-] | –
39 | 196 to 199 °C | CC(=O)O.COc1cc(Cl)c([N+](=O)[O-])cc1C=NNC(=N)N | –
40 | 219.5 to 221 °C | CC(=O)O.N=C(N)NN=Cc1c(Cl)ccc(Cl)c1[N+](=O)[O-] | –
41 | 136.5 to 137 °C | CC(=O)O.N=C(N)NN=Cc1cc(Cl)cc([N+](=O)[O-])c1Br | –
42 | 240 to 241 °C | CC(=O)O.Cc1ccc(C=NNC(=N)N)c([N+](=O)[O-])c1O | –
43 | 207 to 210 °C | CC(=O)O.COc1cc(OC)c([N+](=O)[O-])cc1C=NNC(=N)N | –
44 | 175 to 198 °C (dec.) | CC(=O)O.N=C(N)NN=Cc1cc([N+](=O)[O-])c(Br)cc1F | –
45 | 224 to 226 °C | CC(=O)O.N=C(N)NN=Cc1ccc([N+](=O)[O-])cc1[N+](=O)[O-] | –
46 | 172 to 173.5 °C | CC(=O)O.N=C(N)NN=Cc1ccc(F)c(Br)c1 | –
47 | 217 to 218 °C | COc1ccc([N+](=O)[O-])c(C=NNC(=N)N)c1[N+](=O)[O-].Cl | –
48 | 165 to 171 °C | CC(=O)O.COc1cc([N+](=O)[O-])c([N+](=O)[O-])c(C=NNC(=N)N)c1OC | –
49 | 251 to 254 °C (dec.) | CC(=O)O.N=C(N)NN=Cc1cc([N+](=O)[O-])cc([N+](=O)[O-])c1.O.O (hydrate or solvate) | –
